Assay results published in paper PMC3681905, “Anti-Influenza Activity of C60 Fullerene Derivatives” (PLoS ONE, 2013).
Like-named read-outs stand apart in the source and are kept apart here.

Legend:
[1] = tested on: influenza A virus A/PR/8/34 (H1N1); test: microbe, parasite or virus in culture; format: cell-based; details: read-out: IC50 H1N1 PR8 strain
[2] = tested on: HIV-reverse transcriptase; parameters: method as in PMID 15686922; details: cited from earlier work
[3] = tested on: influenza A virus A/Aichi/2/68 (H3N2); test: microbe, parasite or virus in culture; format: cell-based; details: read-out: IC50 H3N2 Aichi strain
[4] = parameters: method as in earlier work; details: cited from earlier work

Molecule	IC50 ([1]; Influenza A virus, MDCK, 24 h)	inhibition of HIV-reverse transcriptase [2]	IC50 ([3]; Influenza A virus, H3N2, MDCK, 24 h)	IC50 [1]	antioxidant activity [4]	IC50 [3]
O=C(O)C1NC(C(=O)O)C23c4c5c6c7c8c9c(c%10c%11c2c2c4c4c%12c5c5c6c6c8c8c%13c9c9c%10c%10c%11c%11c2c2c4c4c%12c%12c5c5c6c8c6c8c%13c9c9c%10c%10c%11c2c2c4c4c%12c5c6c5c8c9c%10c2c45)C713 (stereo not drawn) [no. 3, [60]fullerenopyrrolidine-2,5-dicarboxylic acid]	> 100 µM	inhibits	> 100 µM			
[60]fullerenodicyclopropane-1,1,1′,1′-tetracarboxylic acid [no. 2]				57 µM	excellent antioxidant activity	> 100 µM
